Like-named read-outs stand apart in the source and are kept apart here.

Drawing on US20230117034A1, “PYRAZOLOTRIAZINES” (Bayer Aktiengesellschaft, priority 2019, published 2023), this text covers IC50 for four molecules.

The subject of test [1] is BRCA1 mRNA expression in MDA-MB-231 cells. Nature of the test: qRT-PCR assay: BRCA1 mRNA expression in MDA-MB-231. The format is cell-based, human. The settings on record: median, read-out: RTqPCR-MDA-MB-231, IC50, BRCA1 (median). In a few lines:
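Read-out is RT-qPCR with expression normalised to the GAPDH housekeeping gene. Before RNA isolation, plated cells (200,000 per well, 24 h attachment) received test substances continuously over 24 h, and 600 ng of RNA served as cDNA template.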
(Quantitative PCR measures a nucleic acid by following its amplification.)

Test [2] has as its system CAL-120, human breast adenocarcinoma cells. Nature of the test: Proliferation assay CAL-120 (crystal violet, 4 days). The class given is cell-based. To be noted: CAL-120 cells, median, read-out: Prolif-CAL-120, IC50-[mol/l] (median). In a few lines:
(§1)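 Plated 4,000 cells/well, 10% FCS; 24 h later treated 0.01-10 µmol/L cpd (DMSO 0.1%), 4 d. Fix glutaraldehyde, stain 0.1% crystal violet pH 3.0, elute acetic acid, A595. Normalized to t0 plate/untreated; 4-param IC50.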

Test [3] addresses T1, CDK2/CycE (Homo sapiens, UniProt P24941).
T1 construct: purchased ProQinase GmbH (Freiburg, Germany); host or cells: insect cells (Sf9)
Nature of the test: CDK2/CycE kinase assay (TR-FRET, 2 mM ATP). The format is biochemical. The settings on record: 2 mM ATP (high ATP); median; read-out: CDK2/CyclinE, 2 mM ATP (high ATP), IC50 (median). The method, boiled down: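 GST-tagged human CDK2 and CycE from Sf9 cells, about 10 ng/ml, pre-incubated 15 min at 22 °C with compound in Tris/HCl pH 8.0 buffer. Reaction with 2 mM ATP and 0.75 µM biotinylated peptide for 25 min at 22 °C. Phospho-RB antibody TR-FRET (665/620 nm ratio) read after 1 h; data normalised to no-inhibitor and no-enzyme controls.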
On the technique in general: In TR-FRET formats the signal depends on donor and acceptor labels being close together.

The subject of test [4] is MDA-MB-231, human breast cancer cells. Nature of the test: Proliferation assay MDA-MB-231 (crystal violet, 4 days). The format is cell-based. The settings on record: MDA-MB-231 cells, median, read-out: Prolif-MDA MB-231, IC50-[mol/l] (median). In a few lines: as §1
The mark [5] stands for this setting: Homo sapiens, MDA-MB-231, Inhibition of BRCA1 mRNA expression in MDA-MB-231 cells.

`CN(CC(C)(C)O)c1nc(NCc2nc3c(F)cccc3[nH]2)n2ncc(Cl)c2n1` [Example 366, 1-[(8-chloro-4-{[(4-fluoro-1H-benzimidazol-2-yl)methyl]amino}pyrazolo[1,5-a][1,3,5]triazin-2-yl)(methyl)amino]-2-methylpropan-2-ol]: the IC50 in test [1] (setting [5]) came out at 27.1 nM; in test [2] (Homo sapiens, CAL-120, 96 h) it was 31.3 nM; in test [3], 5.57 µM; in test [4] (Homo sapiens, MDA-MB-231, 96 h) it was 57.1 nM.

In the case of `Fc1cc2nc(CNc3nc(N4C[C@H]5CC[C@@H](C4)N5)nc4c(C5CC5)cnn34)[nH]c2cc1Cl` [Example 328, N-[(6-chloro-5-fluoro-1H-benzimidazol-2-yl)methyl]-8-cyclopropyl-2-[(1R,5S)-3,8-diazabicyclo[3.2.1]octan-3-yl]pyrazolo[1,5-a][1,3,5]triazin-4-amine], the IC50 in test [1] (setting [5]) came out at 2.78 nM; in test [2] (Homo sapiens, CAL-120, 96 h), 0.901 nM; in test [3], 14.5 µM; in test [4] (Homo sapiens, MDA-MB-231, 96 h), 1.04 nM.

As for `Clc1cc2nc(CNc3nc(N4CC5CCC(C4)N5)nc4c(Br)cnn34)[nH]c2cc1Cl` [Example 334, 8-bromo-2-(3,8-diazabicyclo[3.2.1]octan-3-yl)-N-[(5,6-dichloro-1H-benzimidazol-2-yl)methyl]pyrazolo[1,5-a][1,3,5]triazin-4-amine], the IC50 came to 4.02 nM in test [1] (setting [5]); 1.72 nM in test [2] (Homo sapiens, CAL-120, 96 h); 10.5 µM in test [3]; 2.18 nM in test [4] (Homo sapiens, MDA-MB-231, 96 h).

For the molecule `Brc1cnn2c(NCc3nc4ccccc4[nH]3)nc(N3C[C@H]4CC[C@@H]3CN4)nc12` (single isomer, unassigned) [Example 335, N-[(1H-benzimidazol-2-yl)methyl]-8-bromo-2-{[1R or S-(1R*,4R*)]-2,5-diazabicyclo[2.2.2]octan-2-yl}pyrazolo[1,5-a][1,3,5]triazin-4-amine], the IC50 in test [1] (Inhibition of BRCA1 mRNA expression in MDA-MB-231 cells) stood at 12.7 nM; in test [2], 4.24 nM; in test [3], 2.8 µM; in test [4] it was 10.5 nM.
